Tests used:
Assay type in all cases: functional
[1] = test system: Mus musculus; assay: (§1) Immuno-regulatory activity in cyclophosphamide-induced immunocompromised Kunming mouse model assessed as peritoneal macrophage phagocytosis rate at 200 mg/kg administered once daily via gavage for 30 consecutive days measured after 12 hrs of fasting following last dose by Giemsa staining based assay (reference value: 21.33 +/- 0.98%)
[2] = test system: Mus musculus; assay: (§2) Immuno-regulatory activity in cyclophosphamide-induced immunocompromised Kunming mouse model assessed as enhancement of B cell-mediated humoral immunity by measuring SRBC half hemolysis value at 50 mg/kg administered once daily via gavage for 30 consecutive days and SRBC immunization on day 26 measured after 12 hrs of fasting following last dose on day 30 (reference value: 173.42 +/- 7.75)
[3] = test system: Mus musculus; assay: (§3) Immuno-regulatory activity in cyclophosphamide-induced immunocompromised Kunming mouse model assessed as body weight at 50 mg/kg administered once daily via gavage for 30 consecutive days measured after 12 hrs of fasting following last dose (reference value: 30.3 +/- 2.47 mg)
[4] = test system: Mus musculus; assay: as §3, with “concanavalin A-induced lymphocyte proliferation stimulate index in spleen” for “body weight”, “dose on day 30 by MTT assay” for “dose”, “0.054” for “30.3”, “0.001)” for “2.47 mg)”
[5] = test system: Mus musculus; assay: Immuno-regulatory activity in cyclophosphamide-induced immunocompromised Kunming mouse model assessed as MDA content in liver at 50 mg/kg administered once daily via gavage for 30 consecutive days measured after 12 hrs of fasting following last dose on day 30 (reference value: 3.34 +/- 0.18)
[6] = test system: Mus musculus; assay: Immuno-regulatory activity in cyclophosphamide-induced immunocompromised Kunming mouse model assessed as GSH-PX activity in serum at 50 mg/kg administered once daily via gavage for 30 consecutive days measured after 12 hrs of fasting following last dose on day 30 (reference value: 5.66 +/- 0.17)
[7] = test system: Mus musculus; assay: as §2, with “200” for “50”
[8] = test system: Mus musculus; assay: (§4) Immuno-regulatory activity in cyclophosphamide-induced immunocompromised Kunming mouse model assessed as macrophage elimination ability against foreign substances by measuring carbon clearance index at 200 mg/kg administered once daily via gavage for 30 consecutive days measured after 12 hrs of fasting following last dose (reference value: 2.68 +/- 0.3)
[9] = test system: Mus musculus; assay: Immuno-regulatory activity in cyclophosphamide-induced immunocompromised Kunming mouse model assessed as SOD activity in spleen at 50 mg/kg administered once daily via gavage for 30 consecutive days measured after 12 hrs of fasting following last dose on day 30 (reference value: 94.84 +/- 3.28)
[10] = test system: Mus musculus; assay: Immuno-regulatory activity in cyclophosphamide-induced immunocompromised Kunming mouse model assessed as MDA content in serum at 50 mg/kg administered once daily via gavage for 30 consecutive days measured after 12 hrs of fasting following last dose on day 30 (reference value: 2.77 +/- 0.05)
[11] = test system: Mus musculus; assay: (§5) Immuno-regulatory activity in cyclophosphamide-induced immunocompromised Kunming mouse model assessed as enhancement of B cell-mediated humoral immunity by measuring antibody producing cells in spleen against SRBC at 200 mg/kg administered once daily via gavage for 30 consecutive days measured after 12 hrs of fasting following last dose on day 30 (reference value: 0.48 +/- 0.05)
[12] = test system: Mus musculus; assay: (§6) Immuno-regulatory activity in cyclophosphamide-induced immunocompromised Kunming mouse model assessed as body weight at 200 mg/kg administered once daily via gavage for 30 consecutive days measured after 12 hrs of fasting following last dose (reference value: 30.3 +/- 2.47 mg)
[13] = test system: Mus musculus; assay: Immuno-regulatory activity in cyclophosphamide-induced immunocompromised Kunming mouse model assessed as GSH-PX activity in serum at 200 mg/kg administered once daily via gavage for 30 consecutive days measured after 12 hrs of fasting following last dose on day 30 (reference value: 5.66 +/- 0.17)
[14] = test system: Mus musculus; assay: Immuno-regulatory activity in cyclophosphamide-induced immunocompromised Kunming mouse model assessed as SOD activity in serum at 200 mg/kg administered once daily via gavage for 30 consecutive days measured after 12 hrs of fasting following last dose on day 30 (reference value: 91.98 +/- 3.32)
[15] = test system: Mus musculus; assay: Immuno-regulatory activity in cyclophosphamide-induced immunocompromised Kunming mouse model assessed as MDA content in kidney at 200 mg/kg administered once daily via gavage for 30 consecutive days measured after 12 hrs of fasting following last dose on day 30 (reference value: 2.35 +/- 0.06)
[16] = test system: Mus musculus; assay: (§7) Immuno-regulatory activity in cyclophosphamide-induced immunocompromised Kunming mouse model assessed as enhancement of T cell-mediated delayed-type hypersensitivity by measuring increase in paw weight at 200 mg/kg administered once daily via gavage for 30 consecutive days and SRBC immunization on day 26 measured after 12 hrs of fasting following last dose on day 30 relative to control
[17] = test system: Mus musculus; assay: Immuno-regulatory activity in cyclophosphamide-induced immunocompromised Kunming mouse model assessed as SOD activity in liver at 200 mg/kg administered once daily via gavage for 30 consecutive days measured after 12 hrs of fasting following last dose on day 30 (reference value: 160.65 +/- 3.12)
[18] = test system: Mus musculus; assay: Immuno-regulatory activity in cyclophosphamide-induced immunocompromised Kunming mouse model assessed as concanavalin A-induced lymphocyte proliferation stimulate index in spleen at 200 mg/kg administered once daily via gavage for 30 consecutive days measured after 12 hrs of fasting following last dose on day 30 by MTT assay (reference value: 0.054 +/- 0.001)
[19] = test system: Mus musculus; assay: Immuno-regulatory activity in cyclophosphamide-induced immunocompromised Kunming mouse model assessed as SOD activity in kidney at 50 mg/kg administered once daily via gavage for 30 consecutive days measured after 12 hrs of fasting following last dose on day 30 (reference value: 198.82 +/- 9.98)
[20] = test system: Mus musculus; assay: as §5, with “50” for “200”
[21] = test system: Mus musculus; assay: Immuno-regulatory activity in cyclophosphamide-induced immunocompromised Kunming mouse model assessed as GSH-PX activity in kidney at 200 mg/kg administered once daily via gavage for 30 consecutive days measured after 12 hrs of fasting following last dose on day 30 (reference value: 10.12 +/- 0.25)
[22] = test system: Mus musculus; assay: as §3, with “recovery from thymus damage by measuring thymus” for “body”, “weight index” for “weight”, “0.98” for “30.3”, “0.14)” for “2.47 mg)”
[23] = test system: Mus musculus; assay: as §1, with “50” for “200”
[24] = test system: Mus musculus; assay: Immuno-regulatory activity in cyclophosphamide-induced immunocompromised Kunming mouse model assessed as GSH-PX activity in spleen at 50 mg/kg administered once daily via gavage for 30 consecutive days measured after 12 hrs of fasting following last dose on day 30 (reference value: 7.97 +/- 1.21)
[25] = test system: Mus musculus; assay: Immuno-regulatory activity in cyclophosphamide-induced immunocompromised Kunming mouse model assessed as GSH-PX activity in spleen at 200 mg/kg administered once daily via gavage for 30 consecutive days measured after 12 hrs of fasting following last dose on day 30 (reference value: 7.97 +/- 1.21)
[26] = test system: Mus musculus; assay: Immuno-regulatory activity in cyclophosphamide-induced immunocompromised Kunming mouse model assessed as MDA content in spleen at 200 mg/kg administered once daily via gavage for 30 consecutive days measured after 12 hrs of fasting following last dose on day 30 (reference value: 4.9 +/- 0.11)
[27] = test system: Mus musculus; assay: Immuno-regulatory activity in cyclophosphamide-induced immunocompromised Kunming mouse model assessed as GSH-PX activity in kidney at 50 mg/kg administered once daily via gavage for 30 consecutive days measured after 12 hrs of fasting following last dose on day 30 (reference value: 10.12 +/- 0.25)
[28] = test system: Mus musculus; assay: Immuno-regulatory activity in cyclophosphamide-induced immunocompromised Kunming mouse model assessed as SOD activity in kidney at 200 mg/kg administered once daily via gavage for 30 consecutive days measured after 12 hrs of fasting following last dose on day 30 (reference value: 198.82 +/- 9.98)
[29] = test system: Mus musculus; assay: Immuno-regulatory activity in cyclophosphamide-induced immunocompromised Kunming mouse model assessed as MDA content in liver at 200 mg/kg administered once daily via gavage for 30 consecutive days measured after 12 hrs of fasting following last dose on day 30 (reference value: 3.34 +/- 0.18)
[30] = test system: Mus musculus; assay: Immuno-regulatory activity in cyclophosphamide-induced immunocompromised Kunming mouse model assessed as GSH-PX activity in liver at 50 mg/kg administered once daily via gavage for 30 consecutive days measured after 12 hrs of fasting following last dose on day 30 (reference value: 9.52 +/- 0.26)
[31] = test system: Mus musculus; assay: as §6, with “recovery from thymus damage by measuring thymus” for “body”, “weight index” for “weight”, “0.98” for “30.3”, “0.14)” for “2.47 mg)”
[32] = test system: Mus musculus; assay: Immuno-regulatory activity in cyclophosphamide-induced immunocompromised Kunming mouse model assessed as MDA content in spleen at 50 mg/kg administered once daily via gavage for 30 consecutive days measured after 12 hrs of fasting following last dose on day 30 (reference value: 4.9 +/- 0.11)
[33] = test system: Mus musculus; assay: as §1, with “index” for “rate”, “0.5” for “21.33”, “0.03)” for “0.98%)”
[34] = test system: Mus musculus; assay: Immuno-regulatory activity in cyclophosphamide-induced immunocompromised Kunming mouse model assessed as GSH-PX activity in liver at 200 mg/kg administered once daily via gavage for 30 consecutive days measured after 12 hrs of fasting following last dose on day 30 (reference value: 9.52 +/- 0.26)
[35] = test system: Mus musculus; assay: as §3, with “recovery from spleen damage by measuring spleen” for “body”, “weight index” for “weight”, “4.59” for “30.3”, “0.28)” for “2.47 mg)”
[36] = test system: Mus musculus; assay: Immuno-regulatory activity in cyclophosphamide-induced immunocompromised Kunming mouse model assessed as MDA content in kidney at 50 mg/kg administered once daily via gavage for 30 consecutive days measured after 12 hrs of fasting following last dose on day 30 (reference value: 2.35 +/- 0.06)
[37] = test system: Mus musculus; assay: Immuno-regulatory activity in cyclophosphamide-induced immunocompromised Kunming mouse model assessed as SOD activity in serum at 50 mg/kg administered once daily via gavage for 30 consecutive days measured after 12 hrs of fasting following last dose on day 30 (reference value: 91.98 +/- 3.32)
[38] = test system: Mus musculus; assay: Immuno-regulatory activity in cyclophosphamide-induced immunocompromised Kunming mouse model assessed as SOD activity in liver at 50 mg/kg administered once daily via gavage for 30 consecutive days measured after 12 hrs of fasting following last dose on day 30 (reference value: 160.65 +/- 3.12)
[39] = test system: Mus musculus; assay: as §1, with “index” for “rate”, “50” for “200”, “0.5” for “21.33”, “0.03)” for “0.98%)”
[40] = test system: Mus musculus; assay: Immuno-regulatory activity in cyclophosphamide-induced immunocompromised Kunming mouse model assessed as MDA content in serum at 200 mg/kg administered once daily via gavage for 30 consecutive days measured after 12 hrs of fasting following last dose on day 30 (reference value: 2.77 +/- 0.05)
[41] = test system: Mus musculus; assay: as §4, with “50” for “200”
[42] = test system: Mus musculus; assay: as §6, with “recovery from spleen damage by measuring spleen” for “body”, “weight index” for “weight”, “4.59” for “30.3”, “0.28)” for “2.47 mg)”
[43] = test system: Mus musculus; assay: Immuno-regulatory activity in cyclophosphamide-induced immunocompromised Kunming mouse model assessed as SOD activity in spleen at 200 mg/kg administered once daily via gavage for 30 consecutive days measured after 12 hrs of fasting following last dose on day 30 (reference value: 94.84 +/- 3.28)
[44] = test system: Mus musculus; assay: as §7, with “50” for “200”

O=C(O)C1c2cc(O)c(O)c3sc4c5c(O)[nH]c6cc(O)c(O)c(c65)c5c6ccc7ccc1c(c76)n(c23)c45 (centres undefined)
Activity [1]: 26.31%
Activity [2]: 175.62
Activity [3]: 32.9 g
Activity_index [4]: 0.061
Activity [5]: 2.99
Activity [6]: 5.76
Activity [7]: 182.25
Activity_index [8]: 3.54
Activity [9]: 106.25
Activity [10]: 2.66
Activity [11]: 0.62
Activity [12]: 35.7 g
Activity [13]: 7.27
Activity [14]: 104.09
Activity [15]: 1.83
Activity [16]: 79.3%
Activity [17]: 202.26
Activity_index [18]: 0.072
Activity [19]: 218.42
Activity [20]: 0.52
Activity [21]: 16.79
Activity_index [22]: 1.01 mg/g
Activity [23]: 22.14%
Activity [24]: 8.76
Activity [25]: 11.99
Activity [26]: 3.13
Activity [27]: 11.57
Activity [28]: 233.49
Activity [29]: 2.25
Activity [30]: 9.76
Activity_index [31]: 1.37 mg/g
Activity [32]: 4.54
Activity_index [33]: 0.79
Activity [34]: 16.1
Activity_index [35]: 4.61 mg/g
Activity [36]: 2.07
Activity [37]: 94.15
Activity [38]: 174.51
Activity_index [39]: 0.53
Activity [40]: 2
Activity_index [41]: 2.95
Activity_index [42]: 5.13 mg/g
Activity [43]: 110.54
Activity [44]: 42.87%

From ChEMBL document CHEMBL4007479, “Immunoregulatory effect assessment of a novel melanin and its carboxymethyl derivative” (2017)
